Laboratory results taken from patent US12678508B2, “Compounds for targeted degradation of interleukin-2-inducible T-cell kinase and methods of use” (DANA-FARBER CANCER INSTITUTE, INC., priority 2020, dated 2026).
Several values for one entry are separate records, joined by “and”; a condition that tells them apart may be missing. Equal entries are not always repeated. One block for each molecule: values may come before it.

Key:
DERL-2 cells = experiment: Cell proliferation and cell death (PI, flow cytometry) of DERL-2 cells in culture with IL-2; assay type: cell-based
Description: DERL-2 cells supplemented in culture with IL-2 (FIG. 4A) or without IL-2 (FIG. 4B and FIG. 4C) were treated with compound 1 at the indicated doses. Cells were split at 1:5 ratio with fixed concentration of compound 1 every two days. Cell numbers and cell death were quantified by flow cytometry. Propidium iodide (PI) solution, a marker of cell death, was added to cells 5 minutes before flow cytometry detection. Percent PI-positive is used to quantify cell death.
DERL-2 cells in culture with IL-2 were treated with either 1 μM of compound 1, 1 μM BMS509744 or DMSO. Cells were split at 1:5 ratio and fresh compounds were added every two days. Cell numbers and cell death were quantified by flow cytometry. PI solution was added to cells 5 minutes before flow cytometry detection to indicate cell death.

ITK [1] = molecular target: T1, ITK (Homo sapiens, UniProt Q08881); experiment: ITK degradation in DERL-2 cells (immunoblot); assay type: cell-based; set-up: endogenous in cells; host or cells: DERL-2 cells
T1 sequence (Q08881 1-620): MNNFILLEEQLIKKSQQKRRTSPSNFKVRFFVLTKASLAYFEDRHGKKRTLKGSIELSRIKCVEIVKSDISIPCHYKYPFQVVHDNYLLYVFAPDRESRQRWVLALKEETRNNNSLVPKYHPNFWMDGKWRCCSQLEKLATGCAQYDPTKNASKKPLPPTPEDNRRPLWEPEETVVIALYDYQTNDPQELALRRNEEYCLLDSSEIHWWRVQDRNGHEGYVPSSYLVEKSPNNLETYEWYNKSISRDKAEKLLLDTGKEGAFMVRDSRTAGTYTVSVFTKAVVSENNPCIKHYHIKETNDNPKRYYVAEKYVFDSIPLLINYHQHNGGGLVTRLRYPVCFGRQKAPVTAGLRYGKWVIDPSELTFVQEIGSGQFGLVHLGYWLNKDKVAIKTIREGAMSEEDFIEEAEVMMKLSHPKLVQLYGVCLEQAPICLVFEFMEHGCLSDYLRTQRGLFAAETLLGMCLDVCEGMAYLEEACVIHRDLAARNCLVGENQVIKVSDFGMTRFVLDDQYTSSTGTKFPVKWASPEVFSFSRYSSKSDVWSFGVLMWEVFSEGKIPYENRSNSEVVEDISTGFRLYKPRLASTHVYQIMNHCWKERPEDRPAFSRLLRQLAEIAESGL
Description: (§1) DERL-2 cells (hepatosplenic T-cell lymphoma) were treated with compound 1 for either 4 hours (FIG. 1A) or 18 hours (FIG. 1B) at the indicated doses. After treatment, DERL-2 cells were lysed in Cell Lysis Buffer (Cell Signaling Technology®) on ice for 30 minutes and lysates were clarified by centrifugation. Immunoblotting for ITK was performed to evaluate changes in protein levels upon ITK degrader treatment. All samples were run with equal total protein content and immunoblotting was performed using antibodies that detect total ITK protein as well as GAPDH as a loading control followed by washing and binding of horseradish peroxidase (HRP)-conjugated secondary antibodies. Blots were developed using SuperSignal™ Pico chemiluminescent substrate (Thermo Scientific).
as §1, with “cells” for “cells (hepatosplenic T-cell lymphoma)”, “compound 1, compound 2 or ITK inhibitor (BMS509744)” for “compound 1”, “for” for “for either 4 hours (FIG. 1A) or”, “(FIG. 2)” for “(FIG. 1B)”, “After 18 hours,” for “After treatment,”

ITK [2] = molecular target: T1, ITK; experiment: In vivo ITK degradation in Hut78 xenograft tumors; set-up: endogenous in cells; host or cells: Hut78 cells (in culture; or engrafted subcutaneously in NSG mice and purified from tumours); species or system mouse; details: female NSG mice, engrafted Hut78 cells, 50 mg/kg intraperitoneal, 3 doses every 8 hours, 4 hours after last dose
Description: In vivo degradation studies were conducted using female NSG mice. 6 eight-week-old NSG mice were injected subcutaneously with 1*10^7 of Hut78 cells. The injected mice were monitored for tumor formation twice a week until tumor growth reaches an average of 500 mm^3. Mice were then randomized into 3 mice per group, and treated with either vehicle (7.5% DMSO, 20% (2-hydroxypropyl)-β-cyclodextrin [HP-β-CD]) or compound 1 at 50 mg/kg via intraperitoneal injection for 3 doses (every 8 hours×3). Four hours after the last doing, mice were sacrificed to harvest tumors. Tumor tissues were cut into small pieces and dissociated into single cell suspension following the instruction of Tumor Dissociation Kit (Miltenyi Biotec, #130-095-929). Suspension cells were then depleted of mouse cells (Catalog #19849, STEMCELL technology). Purified tumor cells were lysed in Cell Lysis Buffer (Cell Signaling Technology®) on ice for 30 minutes and lysates were clarified by centrifugation. Immunoblotting for ITK was performed as described in Example 7 to evaluate protein level changes.

ITK [3] = molecular target: T1, ITK; experiment: ITK degradation in DERL-2 cells after pre-treatment with excess BMS509744; assay type: cell-based; set-up: endogenous in cells; host or cells: DERL-2 cells; details: 10 μM BMS509744 4 hours, then 100 nM compound 1 4 hours
Description: DERL-2 cells were pre-treated with or without 10 μM BMS509744 for 4 hours. After 4 hours, 100 nM compound 1 was added and cells were cultured for another 4 hours. After treatment, DERL-2 cells were lysed in Cell Lysis Buffer (Cell Signaling Technology®) on ice for 30 minutes and lysates were clarified by centrifugation. Western blot was performed as described in Example 7 to detect protein expression levels of ITK, IKZF1, IKZF3, and GAPDH.

ITK [4] = molecular target: T1, ITK; experiment: ITK degradation in Hut78 cells (immunoblot); assay type: cell-based; set-up: endogenous in cells; details: 1 μM, 18 hours
Description: Hut78 cells (mycosis fungoides and Sezary syndrome) were treated with or without 1 μM of compound 1 for 18 hours. After treatment, Hut78 cells were lysed in Cell Lysis Buffer (Cell Signaling Technology®) on ice for 30 minutes and lysates were clarified by centrifugation. Immunoblotting for ITK was performed as described in Example 7 to evaluate changes in protein levels upon ITK degrader treatment.

ITK [5] = molecular target: T1, ITK; experiment: ITK degradation in DERL-2 cells with NAE inhibitor MLN4924 co-treatment; assay type: cell-based; set-up: endogenous in cells; host or cells: DERL-2 cells; details: 18 hours, combination with NAE inhibitor MLN4924
Description: DERL-2 cells were treated with compound 1, the NEDD8-activating enzyme (NAE) inhibitor MLN4924, or in combination for 18 hours (FIG. 3) at […]. After 18 hours, DERL-2 cells were lysed in Cell Lysis Buffer (Cell Signaling Technology®) on ice for 30 minutes and lysates were clarified by centrifugation. Western blot was performed as described in Example 7.

Molt4 cells = experiment: Proteome-wide profiling by TMT quantitative mass spectrometry; assay type: cell-based; details: 100 nM, 5 hours
Description: Proteome-wide profiling experiments were performed according to the reported protocol (B. Jiang et al., Angew. Chem. Int. Ed. Engl. 58:6321-6326 (2019)). Molt4 cells were treated with DMSO vehicle, 100 nM of compound 1 or 100 nM of compound 2 for 5 hours. Protein abundance measurements were made using TMT quantitative mass spectrometry and significant changes were assessed by moderated t-test as implemented in the limma package. The log2 fold change (log2 FC) is shown on the […] and negative log10 p value (−log10 p value) on the […] for three independent biological replicates of each treatment.

Hut78 cells = experiment: Cell growth and cell death (PI, flow cytometry) of Hut78 cells; assay type: cell-based; details: Hut78 cells (independent of IL-2)
[6] = Mouse pharmacokinetic (PK) study; assay type: in vivo
Description: Standard PK studies were conducted using male C57BI/6 mice obtained from Scripps Fla. A single 2 mg/kg intravenous (IV) injection of compound 1 solution in 5/90 DMSO/10% Captisol® was evaluated. Plasma concentrations of compound 1 reported at each of the 8 time points (5 min, 15 min, 30 min, 1 h, 2 h, 4 h, 6 h and 8 h post dosing) are the average values from 3 test animals.

[7] = DERL-2 cells supplemented with IL-2
[8] = mouse, male C57BI/6 mice, single 2 mg/kg IV, plasma

concentration at which ITK degradation is evident (ITK [1]; 18 hours): 1 nM
concentration of maximal ITK degradation (ITK [1]; 18 hours): 1000 nM
ITK degradation induced by compound 1 after pre-treatment with excess BMS509744 (ITK [3]): rescued the degradation
degradation of ITK protein (immunoblot) (ITK [4]): pronounced degradation of ITK protein
ITK degradation induced by compound 1 on treatment with MLN4924 (ITK [5]): rescued the degradation
AUC % Extrap ([6]; male C57BI/6 mice, single 2 mg/kg IV, plasma): 5.14 % Extrap
AUC(0-t) [6, 8]: 1370 ng·h/mL and 1.34 µM·h
Cmax [6, 8]: 1710 ng/mL and 1.67 µM
Tmax [6, 8]: 4.8 min
half-life [6, 8]: 2.18 h
AUC(0-inf) ([6]; mouse, male C57BI/6 mice, single 2 mg/kg IV, plasma, read-out: AUCINF—obs (converted)): 1440 ng·h/mL
clearance ([6]; mouse, male C57BI/6 mice, single 2 mg/kg IV, plasma, read-out: Cl—obs): 25.2 mL/min/kg
MRT inf ([6]; mouse, male C57BI/6 mice, single 2 mg/kg IV, plasma, read-out: MRTINF—obs): 1.96 h
Vd ([6]; mouse, male C57BI/6 mice, single 2 mg/kg IV, plasma, read-out: VSS—obs): 2.94 L/kg
Compound: COc1cc(C)c(Sc2cnc(NC(=O)c3ccc(N4CCN(CCCCCCCNC(=O)COc5cccc6c5C(=O)N(C5CCC(=O)NC5=O)C6=O)CC4)cc3)s2)cc1C(=O)N1CCN(C(C)=O)CC1 (stereo not drawn) [compound 1, N-(5-((5-(4-acetylpiperazine-1-carbonyl)-4-methoxy-2-methylphenyl)thio)thiazol-2-yl)-4-(4-(7-(2-((2-(2,6-dioxopiperidin-3-yl)-1,3-dioxoisoindolin-4-yl)oxy)acetamido)heptyl)piperazin-1-yl)benzamide]
cell death (percent PI-positive) compared with DMSO (DERL-2 cells; [7]): induced cell death
inhibition of cell proliferation compared with DMSO (DERL-2 cells; [7]): > 10 fold
cell proliferation and cell death of TCL cells (DERL-2 cells; DERL-2 cells with IL-2, 1 μM): blocked cell proliferation and induced cell death
degradation of ITK protein (immunoblot) (ITK [1]; 4 hours or 18 hours): rapid and pronounced degradation of ITK protein
degradation of ITK protein (immunoblot) (ITK [1]; 18 hours): rapid and pronounced degradation of ITK protein
degradation of ITK protein in vivo (immunoblot of purified tumor cells) (ITK [2]): significant degradation of ITK protein in vivo
proteins downregulated (relative protein abundance) (Molt4 cells): downregulated ITK, IKZF1, IKZF3, ZFP91, RNF166, ZNF653 and ZNF692
cell growth and cell death (Hut78 cells): did not inhibit cell growth or induce cell death
in vivo metabolic stability, exposure and clearance rate (overall assessment) ([6]; mouse PK, 2 mg/kg IV): good in vivo metabolic stability, exposure and clearance rate

concentration at which ITK degradation is evident (ITK [1]; 18 hours): 100 nM
concentration of maximal ITK degradation (ITK [1]; 18 hours): 1000 nM
Compound: COc1cc(C)c(Sc2cnc(NC(=O)c3ccc(N4CCN(CCCCCCCNC(=O)COc5cc6c7c(cccc7c5)C(=O)N(C5CCC(=O)NC5=O)C6=O)CC4)cc3)s2)cc1C(=O)N1CCN(C(C)=O)CC1 (stereo not drawn) [compound 2, N-(5-((5-(4-acetylpiperazine-1-carbonyl)-4-methoxy-2-methylphenyl)thio)thiazol-2-yl)-4-(4-(7-(2-((2-(2,6-dioxopiperidin-3-yl)-1,3-dioxo-2,3-dihydro-1H-benzo[de]isoquinolin-5-yl)oxy)acetamido)heptyl)piperazin-1-yl)benzamide]
degradation of ITK protein (immunoblot) (ITK [1]; 18 hours): rapid and pronounced degradation of ITK protein
proteins downregulated (relative protein abundance) (Molt4 cells): selectively downregulated ITK
